Results taken from the supplement of paper PMC10307832.

Experiments:
Experiment in all cases: relative viability (nuclei count vs DMSO), 5 days (fraction); higher = more cells survive
[1] = compound: CCn1c(-c2nonc2N)nc2cnc(Oc3cccc(NC(=O)c4ccc(OCCN5CCOCC5)cc4)c3)cc21 + CC1(C)CCC(c2ccc(Cl)cc2)=C(CN2CCN(c3ccc(C(=O)NS(=O)(=O)c4ccc(N[C@H](CCN5CCOCC5)CSc5ccccc5)c(S(=O)(=O)C(F)(F)F)c4)cc3)CC2)C1 [Navitoclax] (partner 0.5 µM)
How it was run: (§1)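 Values are medians from duplicate plates. Each reflects relative viability, defined as the nuclei count of treated wells over that of vehicle wells. Lung cancer cell lines in 1536-well plates were pin-tool dosed one day after seeding with one drug alone or with a fixed anchor-drug dose plus five library-drug doses (not always all listed) in √10 steps, then fixed, stained and imaged at 4× after 5 days.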

[2] = compound: CCC1=CN=CN=C1N2CCN(CC2)CC3=NC4=C(N3)C=C(C=C4)C(F)(F)F + COc1cccc2cc(-c3nc([C@H]4CC[C@H](C(=O)O)CC4)n4ncnc(N)c34)[nH]c12 [OSI-027] (partner 0.5 µM)
How it was run: as §1

[3] = compound: CCC1=CN=CN=C1N2CCN(CC2)CC3=NC4=C(N3)C=C(C=C4)C(F)(F)F + Nc1ncn([C@H]2C[C@H](O)[C@@H](CO)O2)c(=O)n1 [Decitabine] (partner 2 µM)
How it was run: as §1

[4] = compound: CCn1c(-c2nonc2N)nc2cnc(Oc3cccc(NC(=O)c4ccc(OCCN5CCOCC5)cc4)c3)cc21 + NC(=O)Nc1cc(-c2cccc(F)c2)sc1C(=O)N[C@H]1CCCNC1 [AZD7762] (partner 0.2 µM)
How it was run: as §1

Cell Line | relative viability ([1]; first compound 0.04 µM) | relative viability ([1]; first compound 0.1265 µM) | relative viability ([1]; first compound 0.4 µM) | relative viability ([1]; first compound 1.265 µM) | relative viability ([1]; first compound 4 µM) | relative viability ([2]; first compound 0.04 µM) | relative viability ([2]; first compound 0.1265 µM) | relative viability ([2]; first compound 0.4 µM) | relative viability ([2]; first compound 1.265 µM) | relative viability ([2]; first compound 4 µM) | relative viability ([3]; first compound 0.04 µM) | relative viability ([3]; first compound 0.1265 µM) | relative viability ([3]; first compound 0.4 µM) | relative viability ([3]; first compound 1.265 µM) | relative viability ([3]; first compound 4 µM) | relative viability ([4]; first compound 0.04 µM) | relative viability ([4]; first compound 0.1265 µM) | relative viability ([4]; first compound 0.4 µM) | relative viability ([4]; first compound 1.265 µM) | relative viability ([4]; first compound 4 µM)
EBC-1 | 0.519 | 0.341 | 0.429 | 0.323 | 0.261 |  |  |  |  |  |  |  |  |  |  |  |  |  |  | 
NCI-H1563 |  |  |  |  |  | 0.813 | 0.788 | 0.733 | 0.685 | 0.821 |  |  |  |  |  |  |  |  |  | 
COR-L 105 | 0.618 | 0.762 | 0.522 | 0.262 | 0.355 | 0.609 | 0.616 | 0.6 | 0.468 | 0.744 | 0.665 | 0.652 | 0.698 | 0.541 | 0.669 |  |  |  |  | 
NCI-H522 |  |  |  |  |  | 0.656 | 0.771 | 0.575 | 0.627 | 0.675 | 0.666 | 0.63 | 0.821 | 0.621 | 0.797 | 0.697 | 0.821 | 0.549 | 0.689 | 0.474
NCI-H1299 | 1.02 | 1.01 | 0.887 | 0.885 | 0.803 |  |  |  |  |  |  |  |  |  |  |  |  |  |  | 
NCI-H2009 | 1.09 | 0.971 | 0.999 | 0.561 | 0.384 | 0.591 | 0.68 | 0.589 | 0.502 | 0.591 | 0.381 | 0.348 | 0.361 | 0.37 | 0.373 |  |  |  |  | 
Calu-6 | 0.835 | 0.759 | 0.64 | 0.353 | 0.306 |  |  |  |  |  |  |  |  |  |  |  |  |  |  | 
NCI-H1650 | 1.79 | 1.31 | 1.34 | 1.08 | 1.05 | 0.635 | 0.621 | 0.565 |  | 0.752 | 0.372 | 0.419 | 0.377 | 0.417 | 0.536 |  |  |  |  | 
NCI-H2342 |  |  |  |  |  | 0.607 | 0.577 | 0.574 | 0.479 | 0.586 | 0.689 | 0.728 | 0.707 | 0.575 | 0.513 | 0.572 | 0.551 | 0.361 | 0.422 | 0.459
COR-L23 | 1.04 | 0.817 | 0.59 | 0.172 | 0.157 | 0.777 | 0.783 | 0.605 | 0.635 | 0.7 | 0.438 | 0.378 | 0.406 | 0.383 | 0.499 |  |  |  |  | 
NCI-H650 |  |  |  |  |  | 0.444 | 0.427 | 0.555 | 0.543 | 0.511 | 0.313 | 0.306 | 0.328 | 0.271 | 0.287 | 1.15 | 0.871 | 0.46 | 0.263 | 0.354
NCI-H1623 |  |  |  |  |  | 0.399 | 0.39 | 0.431 | 0.437 | 0.432 |  |  |  |  |  |  |  |  |  | 
NCI-H661 |  |  |  |  |  | 0.629 | 0.674 | 0.669 | 0.586 | 0.621 | 0.557 | 0.522 | 0.524 | 0.472 | 0.55 |  |  |  |  | 
SK-LU-1 | 1.07 | 0.619 | 0.383 | 0.296 | 0.229 | 0.386 | 0.315 | 0.337 | 0.3 | 0.357 | 0.512 | 0.6 | 0.623 | 0.605 | 0.614 |  |  |  |  | 
SW 1573 | 0.911 | 1.19 | 0.807 | 0.562 | 0.223 | 0.529 | 0.582 | 0.53 | 0.49 | 0.499 | 0.471 | 0.425 | 0.57 | 0.378 | 0.478 |  |  |  |  | 
SW 900 |  |  |  |  |  | 0.529 | 0.543 | 0.539 | 0.421 | 0.476 | 0.385 | 0.424 | 0.457 |  | 0.397 | 0.668 | 0.59 | 0.647 | 0.435 | 0.495
ABC-1 |  |  |  |  |  | 0.492 | 0.416 | 0.351 | 0.507 | 0.555 |  |  | 1.04 | 0.84 | 0.887 | 0.96 | 0.663 | 0.445 | 0.402 | 0.625
NCI-H1648 |  |  |  |  |  | 0.259 | 0.278 |  | 0.278 | 0.314 | 0.502 |  |  | 0.511 | 0.502 | 0.978 | 1.02 | 0.981 | 1.09 | 0.693
NCI-H2023 | 1.18 | 0.963 | 1.04 | 0.773 | 0.688 | 0.447 | 0.403 | 0.342 | 0.321 | 0.453 | 0.21 | 0.218 | 0.224 | 0.215 | 0.252 |  |  |  |  | 
SK-MES-1 | 1.32 | 1.35 | 1.1 |  | 1.05 | 0.648 | 0.592 | 0.597 | 0.57 | 0.622 | 0.34 | 0.386 | 0.373 | 0.372 | 0.361 |  |  |  |  | 
IA-LM | 1.06 | 1.03 | 0.781 | 0.799 | 0.725 |  |  |  |  |  |  |  |  |  |  |  |  |  |  | 
A549 | 1.37 | 1.08 | 0.828 | 0.0937 | 0.0515 |  |  |  |  |  | 0.277 | 0.121 | 0.237 | 0.265 | 0.247 |  |  |  |  | 
NCI-H520 | 1.21 | 1.13 | 0.955 | 0.555 | 0.385 | 0.261 | 0.32 | 0.268 | 0.214 | 0.248 | 0.598 | 0.414 | 0.426 | 0.424 | 0.436 |  |  |  |  | 
NCI-H2228 | 0.759 | 0.841 | 1.07 | 0.927 | 0.833 | 0.535 | 0.633 | 0.487 | 0.635 | 0.656 |  |  |  |  |  |  |  |  |  | 
